Measurements published in patent US20020018762A1, “Utilizing camptotheca products for termite control” (priority 2000, published 2002).
Read-outs that look alike come from different tables or passages of the source.

How the values were obtained:
[1] = tested on: Masson pine caterpillar (Dendrolimus punctatus); details: cited from earlier work
[2] = Water soak of Camptotheca stakes, HPLC analysis of extracted flavonoids and CPTs (Example 5, FIG. 3); assay type: physicochemical
Excerpt: For example, the Camptotheca wood containing CPTs (CPT concentrations: 30-100 ppm) after extraction of flavonoids may be used in preparation of termite-resistant wood products such as composition boards, particleboards, and fiberboards. FIG. 3 illustrates the effect of a water soak on the content of flavonoids and CPT over time.
In July 2000, we conducted an experiment with several pieces of Camptotheca stakes (c. 10 cm in length and 3 cm in diameter) soaked in nanopure water. A month later, water samples were collected from the water with stakes and only water (as control) for HPLC analysis.

[3] = tested on: termites (including drywood termite, Incistermes snyderi); assay: Field test of termite resistance of sprayed southern yellow pine boards (Example 3); assay type: in vivo
Protocol: There were 4 treatments including 3 pieces of sound southern yellow pine boards (30×9×4 cm) each. The wood was treated with either a natural product isolated from Camptotheca acuminata or water as a control. […] The boards were randomly placed on the ground where no termites were observed. The wood condition and termite activity were checked and recorded every week beginning May 20, 2000.

[4] = tested on: subterranean termites; details: for Damage to the treated wood sample: 4-week observation period; for Termites dead within 24 hours: of 30 termites
Protocol: 180 active subterranean termites, were grown in 9 cm Petri dishes in the dark with 30 termites in each of six dishes. In each dish, a filter paper is on the bottom to retain moisture along with a piece of treated southern yellow pine wood (relatively fresh, 3×3×7 cm). The wood was treated with one of the following natural products isolated from Camptotheca acuminata or water (as control) for 30 minutes and then dried: (1) pure CPT (>97%) (3.8 mg/l=3.8 ppm, with water as the solvent); (2) OHCPT (10-hydroxycamptothecin: 3.8 mg/l=3.8 ppm, with water as the solvent); (3) raw extraction of CPTs from young tissues (alkaloids: 8.75 mg/l=8.75 ppm, with 95% ethanol as the solvent); (4) flavonoids (13.9 mg/l=13.9 ppm with water as the solvent); (5) ethanol (95%); and (6) water (control). The termites and wood condition were checked and recorded every hour for the first 12 hours and every 8 hrs thereafter. The observation period was 4 weeks (May 20 to Jun. 17, 2000).

[5] = Effect of the particleboard process on CPT content (FIG. 4); assay type: physicochemical; details: heat and pressure pressing
Excerpt: Particleboard is an engineered wood product used as core material in the construction of home and office furniture, shelving and kitchen cabinets, as well as commercial and institutional fixtures. The major source for the manufacture of particleboard is southern yellow pine. Termite-resistant particleboard is not available. The present invention provides a method of preparing termite-resistant particleboards by including 30-70% Camptotheca wood in combination with currently-existing particleboard materials, e.g., pine, in a process as shown in Example 6. […] Similarly, the CPT content 260 in the raw material from bark and wood 290 and the particleboard from bark and wood 300 remained the same after the particleboard process.
Termite-resistant particleboards were prepared in accordance with the invention, using southern yellow pine mixed with natural Camptotheca acuminata wood after extraction of flavonoids. Six 5-year-old Camptotheca acuminata trees were harvested. The wood materials were classified into: trunk wood without bark, trunk wood with bark, branch wood without bark, and branch wood with bark. The sample materials were chipped and milled into uniformly small particles (20-30 mesh) and soaked in water for a week. The southern yellow pine wood was prepared in the same size as the control sample. […]

[6] = tested on: subterranean termites (Reticultitermes virginicus)
Protocol: 60 active subterranean termites (Reticultitermes virginicus) were grown in 9 cm Petri dishes in dark with 15 termites (10 soldiers and 5 workers) in each of four dishes. In each dish, a filter paper is placed on the bottom of the dish to retain moisture along with a piece of treated southern yellow pine wood (decayed, 3×3×7 cm). The wood was treated with one of the following natural products isolated from Camptotheca acuminata or water (as control) for 30 minutes and then dried: (1) pure CPT (>97%) (camptothecin, 3.8 mg/l=3.8 ppm, with water as the solvent); (2) raw extraction of CPTs from young tissues (alkaloids: 8.75 mg/l=8.75 ppm, with 95% ethanol as the solvent); (3) flavonoids (13.9 mg/l=13.9 ppm with water as the solvent); and (4) water (control). The termites and wood condition were checked and recorded every hour for the first 12 hours and every 8 hrs thereafter. The observation period was 4 weeks (May 17 to Jun. 14, 2000).

[7] = 30 termites per dish, CPT 3.8 ppm, OHCPT 3.8 ppm, raw CPTs 8.75 ppm, flavonoids 13.9 ppm, ethanol 95%
[8] = 15 termites per dish, wood treated 30 min, CPT 3.8 ppm, raw CPTs 8.75 ppm, flavonoids 13.9 ppm

CC[C@@]1(O)C(=O)OCc2c1cc1n(c2=O)Cc2cc3ccccc3nc2-1 [CPT, camptothecin]
Hatchability of eggs ([1]; after treatment with 0.05% CPT): decreased
Mortality of insect larvae, pupae, and adults ([1]; after treatment with CPT): increased
Extraction by water soak at day 7 (FIG. 3) ([2]; day 7): not extracted
Extraction by water soak at day 30 (FIG. 3) ([2]; day 30): remains water insoluble
Termite damage of treated wood (based on weight) ([3]; field, three months, CPT 380 ppm, raw CPTs 8.75 ppm, flavonoids 13.9 ppm): no termite damage
Termite damage of treated southern yellow pine lumber in the field ([3]; within 3 months): damage-free
Damage to the treated wood sample [4]: no obvious damage
Time within which termite mortality was 100% ([4]; 30 termites per dish): ≤ 5 days
Mortality within 1 week [4, 7]: 100%
Mortality within 4 weeks [4, 7]: 100%
Time after which all termites became inactive ([4]; CPT 3.8 ppm): 10 h
Termite behaviour toward the treated wood (repellency / attraction) ([4]; in vivo): avoided getting close to the wood after the initial contract
Termites dead within 24 hours [4]: 12
Effect of particleboard process on CPT content [5]: no significant effect
Damage to the treated wood sample ([6]; 4-week observation period): no obvious damage
Time within which termite mortality was 100% ([6]; 15 termites per dish, CPT 3.8 ppm, raw CPTs 8.75 ppm): ≤ 4 days
Mortality within 1 week [6, 8]: 100%
Mortality within 4 weeks [6, 8]: 100%
Mortality within 1 week ([6]; 15 termites per dish, wood treated 30 min, CPT 3.8 ppm, raw CPTs 8.75 ppm, flavonoids 13.9 ppm, listed as purified CPT): all termites dead
Time after which termites became inactive ([6]; CPT 3.8 ppm): 6 h
Termites dead within 36 hours ([6]; of total 15 termites, CPT 3.8 ppm): Six
Termite damage of treated pine stakes within a week ([6]; summary of Examples 1 and 2): damage free

CCO [Ethanol, ethanol]
Damage to the treated wood sample [4]: No wood damage
Mortality within 1 week ([4]; in vivo): 100%
Mortality within 4 weeks ([4]; in vivo): 100%

CC[C@@]1(O)C(=O)OCc2c1cc1n(c2=O)Cc2cc3cc(O)ccc3nc2-1 [OHCPT, 10-hydroxycamptothecin]
Damage to the treated wood sample [4]: no obvious damage
Time within which termite mortality was 100% ([4]; 30 termites per dish): ≤ 6 days
Mortality within 1 week [4, 7]: 100%
Mortality within 4 weeks [4, 7]: 100%
Termites dead within 24 hours [4]: 16
